Measurements as given in article PMC10144242, “Design, Synthesis, In Vitro, and In Silico Insights of 5-(Substituted benzylidene)-2-phenylthiazol-4(5H)-one Derivatives: A Novel Class of Anti-Melanogenic Compounds” (Molecules, 2023).

Assays:
[1] = In vitro ROS scavenging assay (SIN-1, esterase, DCFH-DA); details: 40 µM, SIN-1-generated ROS
Experimental: DCFH-DA, esterase, and SIN-1 were used to measure the scavenging activity of in vitro ROS generated by SIN-1. DCFH-DA reacts with esterase to generate DCFH, which in turn, reacts with the in vitro ROS generated by SIN-1 to produce DCF. To evaluate the in vitro ROS scavenging effects of the (Z)-BPT derivatives, a concentration of 40 µM was used. […] Three derivatives, 2, 3, and 14, exerted strong scavenging abilities against both intracellular ROS and in vitro ROS.
The ROS scavenging abilities of (Z)-BPT derivatives 1–14 and Trolox were assessed in accordance with methods previously reported by Lebel and Bondy. Briefly, 50 mM phosphate buffer (pH 7.4) was dissolved with esterase (6 units/mL) and 1.25 mM DCFH-DA (2′,7′-dichlorodihydrofluorescein diacetate) from Molecular Probes (Eugene, OR, USA), maintained at 37 °C for 30 min, and kept on ice in the dark until use. […] Using a microplate reader (Berthold Advances GmbH & Co., Bad Wildbad, Germany), the fluorescence intensities of 2′,7′-dichlorofluorescein (DCF or oxidized DCFH) were examined at excitation and emission wavelengths of 485 nm and 535 nm, respectively. […]
Figure 11 The scavenging effects of (Z)-BPT derivatives 1–14 on (A) intracellular ROS and (B) in vitro ROS. ROS levels were assessed using an assay with SIN-1 (an ROS generator) and DCFH-DA (an ROS-sensitive fluorescence probe). […]

[2] = ABTS cation radical scavenging assay; details: 100 µM, 2 min in the dark
Text: In addition, it has been reported that antioxidants that scavenge radicals may inhibit excess melanogenesis, because melanogenesis can be triggered by various radicals. Therefore, the 2,2′-azino-bis(3-ethylbenzothiazoline-6-sulfonic acid) (ABTS) cation radical scavenging abilities of 14 (Z)-BPT derivatives were studied using Trolox as a positive control. The ABTS cation radical is formed by transferring one electron of ABTS to K2S2O8 (potassium persulfate). To obtain an ABTS cation radical solution, a 7.4 mM ABTS solution was mixed with 2.6 mM potassium persulfate and kept in the dark at room temperature for 24 h. After adjusting the absorbance of the ABTS cation radical solution to 0.700 ± 0.03 at 732 nm, the ABTS cation radical solution was mixed with test samples (1–14 and Trolox) to a final concentration of 100 µM and kept for 2 min in the dark. The radical scavenging effects were assessed based on the absorbance measured at 732 nm.
The antioxidant properties of (Z)-BPT derivatives 1–14 were assessed using the ABTS cation-free radical scavenging assay, as previously described. […] Then, methanol was used to dilute the ABTS cation-free radical solution to an absorbance of 0.70 ± 0.02 at 734 nm. […] The absorbance of each well was measured at 734 nm using a VersaMax ™ microplate reader (Molecular Devices, Sunnyvale, CA, USA). […]

Cc1c(C)c2c(c(C)c1O)CCC(C)(C(=O)O)O2 (centres unmarked) [Trolox]
in vitro ROS scavenging activity [1]: significantly decreased the enhanced ROS levels | ABTS cation radical scavenging (inhibition) [2]: 81%
